Measured values: BindingDB's records for doi:10.1016/j.bbrc.2004.06.020 (Chosun University, 2004)

assay: TP_TRANSPORTER: drug resistance (vincristine) in AML-2/D100 cells

IC50 | Structure (SMILES)
1.2 µM | COc1ccc2c(=O)cc(-c3ccc(OC)c(OC)c3)oc2c1
1.4 µM | COc1ccc(-c2cc(=O)c3c(OC)cc(OC)cc3o2)cc1 [TRIMETHYLAPIGENIN]
1.9 µM | COc1ccc2oc(-c3ccc(OC)c(OC)c3)c(OC)c(=O)c2c1
3.2 µM | COc1ccc(-c2cc(=O)c3c(OC)c(OC)c(OC)cc3o2)cc1OC [2-(3,4-dimethoxyphenyl)-5,6,7-trimethoxy-4H-chromen-4-one]
3.2 µM | COc1cc(-c2oc3cc(O)cc(O)c3c(=O)c2O)cc(OC)c1OC
1.2 µM | COc1ccc(-c2cc(=O)c3ccccc3o2)cc1OC
6.3 µM | COc1ccc(-c2oc3cc(O)ccc3c(=O)c2O)cc1OC
0.4 µM | COc1cc(OC)c2c(=O)cc(-c3cc(OC)c(OC)c(OC)c3)oc2c1
0.9 µM | COc1cc(-c2cc(=O)c3c(OC)c(OC)c(OC)cc3o2)cc(OC)c1OC

Structure (SMILES) | IC50
O=c1cc(-c2ccc(O)c(O)c2)oc2cc(O)cc(O)c12 [2-(3,4-dihydroxyphenyl)-5,7-dihydroxy-4H-chromen-4-one] | 19.6 µM
